Measured values taken from patent US5562894A, “Amino-acyl-type and catecholamine-type contrast agents for MRI” (Regents of the University of California, priority 1993, dated 1996).

What was measured:
[1] = Hydrolysis of the esters in pH 7.4 HEPES buffer; format: physicochemical; conditions: pH 7.4, 25° C., each step
Experimental: (§1) Aliquots were withdrawn at various time intervals and examined by HPLC [PRP-1 column; water-acetonitrile gradient; 25 mM ammonium formate, pH 7 mobile phase].

[2] = T1-weighted spin-echo MRI of a rat, region-of-interest % enhancement (Examples 8 and 9); format: in vivo, Sprague-Dawley rat
Experimental: FIG. 5 is a photograph of T1-weighted magnetic resonance images of a rat obtained before, and at 0, 5, 10, 15, 25, 45 and 60 minutes after the injection of Gd-DTPA-bis(phenylalanine) at a dose of 0.1 mmol/kg body weight. The images are 60 mm×60 mm×3 mm thick slices in the coronal plane. The region covered extends from just above the heart to somewhat below the liver. Imaging parameters are indicated along the left of the Figure and include the repetition time ([…]), echo time (6000 microseconds), number of signal averages (4), and the image matrix size (128×256).
FIGS. 6A and 6B are photographs of T1-weighted magnetic resonance images obtained as described in FIG. 5A and 5B, except that Gd-DTPA-bis(phenylalanine ethyl ester) was used as the contrast agent.
A 300-g male Sprague-Dawley rat was anesthetized with an intraperitoneal injection of a mixture of ketamine and diazepam, and a catheter was inserted into a lateral tail vein. The rat was then placed in a 5-cm inside diameter (i.d.) imaging coil in the bore of a 2-Tesla imager-spectrometer system (GE CSI; General Electric Co., Fremont, Calif.). A T1-weighted spin-echo image of the animal's abdomen in the coronal plane was then obtained (TR 300 ms; Te 6 ms; 128-256 image matrix; NEX=4; 3 mm slice thickness). Next, 0.6 g of the Gd-DTPA-bis(phenylalanine) solution described in Example 7 was injected via the catheter. A series of post-injection images were obtained. […] See also, FIGS. 5A and 5B.
The imaging was carried out analogously to Example 8. […] See also, FIGS. 6A and 6B.

[3] = format: in vitro ADME, rat
Experimental: as §1

[4] = Comparative MRI of two preparations of Gd-DTPA-bis(phenylalanine ethyl ester) (Example 11); format: in vivo, mice
Experimental: FIG. 8 is a photograph of T1-weighted magnetic resonance images obtained as in FIG. 6, except that a different preparation of Gd-DTPA-bis(phenylalanine ethyl ester) (sometimes abbreviated Gd-DTPA-(PheOEt)2) was used.
Freshly prepared material, whose pH was carefully adjusted to neutrality, and which was stored in the cold, was determined to be about 90% Gd-DTPA-(PheOEt)2, the remainder being mostly Gd-DTPA-(PheOEt) (Phe).

[5] = tested on: liver transport system or systems inhibitable by BSP; conditions: cited from earlier work
[6] = In vivo MRI, % enhancement by region of interest (Example 19); design: species or system Sprague-Dawley rats
Experimental: Magnetic resonance imaging was carried out using a CSI 2-Tesla imager (GE, Inc., Fremont, Calif.) equipped with a 5-cm diameter distributed-capacitance imaging coil. A T1-weighted (TR 300/TE 6; NEX 4) spin-echo sequence was used.
Sprague-Dawley rats (250-350 g; n=4 for each contrast agent) were anesthetized with ketamine (90 mg/kg) and diazepam (10 mg/kg) and fitted with an intravenous catheter in a lateral tail vein. Anesthesia was maintained during imaging using pentobarbital delivered via an intraperitoneal catheter.
The anesthetized animal was placed in the imaging coil and secured with tape. The coil containing the animal then was placed in the magnet bore, and the magnetic field was shimmed. Pre-contrast images were obtained. The contrast agent (100 μmol/kg) then was injected via the tail-vein catheter, and additional images were obtained at various intervals for up to 90 min post injection.
Contrast agent enhancement was determined by measuring the mean signal intensity (SI) in operator-designated regions of interest (ROI). These were normalized to the pre-injection value for each ROI according to the following formula:
% Enhancement=100×(SIpost -SIpre)/SIpre

[7] = T1-weighted spin-echo, 0.5 Tesla; cited from earlier work
[8] = rat, in vivo, 6 h; cited from earlier work
[9] = in vivo; cited from earlier work
[10] = more pure preparation (about 90% bis ester)
[11] = partially hydrolyzed material of FIG. 6 (ca. 45% bis ester)

CCOC(=O)[C@H](Cc1ccccc1)NC(=O)CN(CCN(CCN(CC(=O)[O-])CC(=O)N[C@@H](Cc1ccccc1)C(=O)OCC)CC(=O)[O-])CC(=O)[O-].[Gd+3] [Gd-DTPA-bis(phenylalanine ethyl ester), Gd(III)-DTPA-bis(L-phenylalanine ethyl ester)]
half-time of hydrolysis in aqueous buffer [1]: of the order of days | image enhancement (in words) ([2]; 2 Tesla, about 0.1 mmol/kg): different apparent enhancement in the liver and heart | image region-of-interest % enhancement ([2]; heart, 0-3 min post-injection): 86% | image region-of-interest % enhancement ([2]; heart, 5-8 min post-injection): 46% | image region-of-interest % enhancement ([2]; heart, 15-18 min post-injection): 66% | image region-of-interest % enhancement ([2]; heart, 25-38 min post-injection): 48% | image region-of-interest % enhancement ([2]; heart, 45-48 min post-injection): 49% | image region-of-interest % enhancement ([2]; heart, 60-63 min post-injection): 25% | image region-of-interest % enhancement ([2]; liver, 0-3 min post-injection): 70% | image region-of-interest % enhancement ([2]; liver, 5-8 min post-injection): 109% | image region-of-interest % enhancement ([2]; liver, 15-18 min post-injection): 113% | image region-of-interest % enhancement ([2]; liver, 25-38 min post-injection): 99% | image region-of-interest % enhancement ([2]; liver, 45-48 min post-injection): 71% | image region-of-interest % enhancement ([2]; liver, 60-63 min post-injection): 44% | image region-of-interest % enhancement ([2]; muscle (Table 3: skeletal muscle), 0-3 min post-injection): 50% | image region-of-interest % enhancement ([2]; muscle (Table 3: skeletal muscle), 5-8 min post-injection): 30% | image region-of-interest % enhancement ([2]; muscle (Table 3: skeletal muscle), 15-18 min post-injection): 31% | image region-of-interest % enhancement ([2]; muscle (Table 3: skeletal muscle), 25-38 min post-injection): 26% | image region-of-interest % enhancement ([2]; muscle (Table 3: skeletal muscle), 45-48 min post-injection): 16% | image region-of-interest % enhancement ([2]; muscle (Table 3: skeletal muscle), 60-63 min post-injection): 16% | ester hydrolysis in rat plasma (in words) [3]: very rapidly hydrolyzed in rat plasma | heart enhancement [4, 10]: 74% | liver enhancement [4, 10]: 163% | factor by which degree of liver enhancement was greater ([4]; more pure preparation vs FIG. 6 material): about three | heart enhancement [4, 11]: 84% | liver enhancement [4, 11]: 53%

CC(=O)N([O-])CCCCCNC(=O)CCC(=O)N([O-])CCCCCNC(=O)CCC(=O)N([O-])CCCCCNC(=O)CC(CC(=O)[O-])c1ccccc1.[Fe+3].[H+] (stereo not shown) [Fe-PGDF]
liver transport (in words) [5]: transported in the liver by a system or systems inhibitable by BSP

COc1ccc(CCNC(=O)CN(CCN(CCN(CC(=O)[O-])CC(=O)NCCc2ccc(OC)c(OC)c2)CC(=O)[O-])CC(=O)[O-])cc1OC.[Gd+3] [Gd-DTPA-(3,4-DMPE)2]
lung enhancement ([6]; 100 μmol/kg i.v., n=4): 141%±4% | enhancement of organs (in words) ([6]; MRI of rats): useful enhancement of heart, lungs, kidney and liver

O=C([O-])C(NCCNC(C(=O)[O-])c1ccccc1[O-])c1ccccc1[O-].[Fe+3] (stereo not shown) [Fe-EHPG]
liver transport (in words) [5]: transported in the liver by a system or systems inhibitable by BSP

CCOC(=O)[C@@H](Cc1ccccc1)NC(=O)CN(CCN(CCN(CC(=O)[O-])CC(=O)N[C@H](Cc1ccccc1)C(=O)OCC)CC(=O)[O-])CC(=O)[O-].[Gd+3] [Gd-DTPA-(D-PheOEt)2, Gd(III)-DTPA-bis(D-phenylalanine ethyl ester)]
half-time of hydrolysis in aqueous buffer [1]: of the order of days | ester hydrolysis in rat plasma (in words) [3]: resistant to even the first step of ester hydrolysis | t1/2 of ester hydrolysis in rat plasma [3]: None Detected

O=C([O-])CN(CCN(CC(=O)[O-])CC(=O)[O-])CCN(CC(=O)[O-])C(COCc1ccccc1)C(=O)[O-].[Gd+3] (stereo not shown) [Gd-BOPTA]
signal enhancement in liver [7]: 48% | biliary excretion [8]: 38.6 % of injected dose

CNC[C@H](O)[C@@H](O)[C@H](O)[C@H](O)CO.CNC[C@H](O)[C@@H](O)[C@H](O)[C@H](O)CO.O=C([O-])CN(CCN(CC(=O)[O-])CC(=O)O)CCN(CC(=O)[O-])CC(=O)O.[Gd+3] [Gd-DTPA, gadolinium (III) complex of diethylenetriaminepentaacetic acid]
signal enhancement in liver [7]: 16% | distribution (in words) [9]: distributes in blood plasma and extracellular fluid
